The target of one data set is T1, DAT (Homo sapiens, UniProt Q01959).
T1 construct: expressed in transfected cells; host or cells: CHO (uptake)
Kind of data set: DAT radioligand binding with [3H]WIN35,428. On the procedure: Radioligand Binding. Affinity of the test compounds for SERT, NET, and DAT was determined in radioligand binding experiments with [^3H]imipramine, [^3]nisoxetine, and [^3H]WIN35,428, respectively, by WuXi AppTec (Hong Kong) Limited, under the conditions described in Table 15.

The test system of the next data set is mice (forced swim test). Kind of data set: Forced swim test in mice, 30-minute pre-treatment. Type of data set: in vivo, Swiss Webster mice. The settings on record: s.c., 30 minutes before test, relative to vehicle. Here is the method:
Animals. Male Swiss Webster mice, aged 4-5 weeks (body weight 25-30 g, Envigo) were used in the experiments Animals were housed in groups of 4-5 under controlled temperatures and 12-hour light/dark cycles, with ad libitum food (Teklad 7001 rodent diet) and water. These studies were carried out in strict accordance with the recommendations in the Guide for the Care and Use of Laboratory Animals of the National Institutes of Health. All efforts were made to minimize suffering.
Drugs and Drug Administration. Imipramine hydrochloride was administered intraperitoneally (i.p.) at a dose of 30 mg/kg. Other compounds were tested as the racemates (indicated by “rac” nomenclature) and were administered subcutaneously (s.c.) as the hydrochloride salts. Normal saline was used as the vehicle and all compounds were administered at a volume of 10 mL/kg, 30 minutes before behavioral testing.
Forced Swim Test (FST). Group size was n=10 per treatment Animals were acclimated to the testing room 30 minutes prior to behavioral testing. Mice were placed individually in a cylinder of water measuring 5 inches wide by 10 inches tall and maintained at 24-25° C. The activity of each mouse was recorded for 6 minutes using Noldus Ethovision tracking software, with periods of inactivity being automatically quantified.
Statistical Analysis. The data points shown are the mean±standard error of the mean (SEM). Analysis was performed using GraphPad Prism 6. Indicated statistical comparisons represent the results of unpaired, two-tailed t tests relative to vehicle (not corrected for multiple comparisons).

Data set [1] is described as follows: HLM stability (Low Activity). Type of data set: in vitro ADME. Particulars: both sexes, human, liver microsomes, pH 7.4, Condition 1 (Low Activity), 0.42 mg protein/mL. (Microsomes from liver hold many membrane-bound enzymes, among them those of drug oxidation.)
The nature of data set [2]: Exposure after intraperitoneal administration in mice. The settings on record: CD-1 mice; for AUC(0-inf) / Cmax: male, mouse; for Cmax and AUC compared to ketamine at 10 mg/kg: plasma and brain. Type of data set: in vivo. Here is the method:
Animals. Male CD-1 mice were used in these studies Animals were randomly assigned to treatment groups and were fasted for 4 h before dosing.
Drugs. Test compounds (HCl salts) were dissolved in de-ionized water and administered intraperitoneally (ip) at the indicated doses (calculated based on freebase) and at a volume of 5 mL/kg body weight. Compounds were tested as the racemates (indicated by “rac” nomenclature) or pure enantiomers (indicated by “R” or “S” nomenclature), as indicated.
Pharmacokinetics. Blood samples were collected under 2,2,2-tribromoethanol anesthesia (150 mg/kg, ip) from the orbital sinus at 0.083, 0.25, 0.5, 1, and 2 h (ketamine, 4 animals per time point) or 0.083, 0.25, 0.5, 1, 2, 4, and 8 h (14R and 14S, 4 animals per time point) into microcontainers containing K2EDTA Immediately after collection of blood, mice were euthanized by cervical dislocation and brain samples were collected at the same time points. All samples were immediately processed, flash-frozen, and stored at −70° C. until subsequent analysis. Plasma samples were separated by centrifugation of whole blood and aliquots (50 μL) were mixed with 200 μL, of internal standard solution (400 ng/mL in 1:1 v/v CH3CN:MeOH). After mixing by pipetting and centrifuging for 4 min at 6000 rpm, 0.5 μL of each supernatant was analyzed for drug using a fit-for-purpose liquid chromatography-tandem mass spectrometry (LC-MS/MS) method, with authentic samples of each analyte used for calibration and identification. Brain samples (weight 200 mg±1 mg) were dispersed in 800 μL of internal standard solution (400 ng/mL in 4:1 v/v MeOH:water) using zirconium oxide beads (115 mg±5 mg) in The Bullet Blender® homogenizer for 30 s at speed 8. After homogenization, the samples were centrifuged for 4 min at 14,000 rpm and 0.5 μL of each supernatant was analyzed for drug using a fit-for-purpose LC-MS/MS method, with authentic samples of each analyte used for calibration and identification.
Data Analysis. The drug concentrations of samples below the lower limit of quantitation (LLOQ) were designated as zero. Pharmacokinetic data analysis was performed using noncompartmental, bolus injection or extravascular input analysis models in WinNonlin 5.2 (PharSight). Data points below LLOQ were presented as missing to improve validity of t112 calculations.

Seven compounds from patent US11344510B2, “Arylcyclohexylamine derivatives and their use in the treatment of psychiatric disorders” (Gilgamesh Pharmaceuticals, Inc., priority 2019, dated 2022) can be followed below.

pKi: −log10 of the molar value. “Also recorded” adds a separate entry of the source. Counter-ions that a name gives are not always drawn. Some results are limits rather than exact numbers.

T1 sequence (Q01959 whole entry, species assumed): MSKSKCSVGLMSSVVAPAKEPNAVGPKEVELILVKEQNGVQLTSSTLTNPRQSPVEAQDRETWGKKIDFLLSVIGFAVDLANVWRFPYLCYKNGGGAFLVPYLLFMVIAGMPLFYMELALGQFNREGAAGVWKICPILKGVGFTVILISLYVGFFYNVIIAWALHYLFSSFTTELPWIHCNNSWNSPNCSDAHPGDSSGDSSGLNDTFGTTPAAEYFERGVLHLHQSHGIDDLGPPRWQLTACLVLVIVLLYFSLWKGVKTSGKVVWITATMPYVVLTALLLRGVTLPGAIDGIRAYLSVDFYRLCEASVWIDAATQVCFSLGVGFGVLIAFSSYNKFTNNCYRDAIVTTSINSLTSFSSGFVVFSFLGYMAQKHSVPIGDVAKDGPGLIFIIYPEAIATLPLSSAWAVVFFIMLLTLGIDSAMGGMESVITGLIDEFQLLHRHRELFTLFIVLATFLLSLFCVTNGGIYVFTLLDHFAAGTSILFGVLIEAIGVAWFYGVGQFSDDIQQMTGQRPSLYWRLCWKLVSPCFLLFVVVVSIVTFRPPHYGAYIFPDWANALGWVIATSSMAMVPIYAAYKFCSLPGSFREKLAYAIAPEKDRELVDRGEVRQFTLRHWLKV

In the case of `O=C1CCCC[C@]1(c1ccccc1)N1CCC1` [Compound 84R, (R)-2-(azetidin-1-yl)-2-phenyl-cyclohexan-1-one], the pKi at DAT is less than 4.02.

As for `O=C1CCCC[C@@]1(c1ccccc1)N1CCC1` [Compound 84S, (S)-2-(azetidin-1-yl)-2-phenyl-cyclohexan-1-one], at DAT, the negative-log Ki (pKi) is 4.04.

As for `CNC1(c2ccccc2)CCCCC1=O` (racemic) [Compound 14rac, 2-(methylamino)-2-phenylcyclohexan-1-one hydrochloride], the “immobility time in FST” value in the data set with mice (forced swim test) (hydrochloride) is reported as “reduced time immobile; also recorded: induced antidepressant-like effects”. For the same compound, in data set [1], the half-life at 2 μM stood at 5.47 h and the microsomal CLint at 2 μM worked out at 5 µL/min/mg.

As to `CNC1(c2ccccc2Cl)CCCCC1=O` (racemic) [rac-ketamine, racemic ketamine, reference compound], the “immobility time in FST” value with mice (forced swim test) was “did not have effects”. Further, in data set [1], the half-life at 2 μM amounted to 1.31 h and the intrinsic clearance (microsomal CLint) at 2 μM amounted to 21 µL/min/mg. In data set [2] (brain, 10 mg/kg ip), this compound gave an AUC(0-inf) of 725 ng·h/mL and a peak concentration (Cmax) of 2250 ng/mL. Moreover, in data set [2] (plasma, 10 mg/kg ip), the total exposure AUC(0-inf) was 382 ng·h/mL and the Cmax worked out at 822 ng/mL.

With `CN[C@]1(c2ccccc2)CCCCC1=O` [Compound 14S, (S)-2-(methylamino)-2-phenylcyclohexan-1-one], in data set [2] (3.16 mg/kg ip), the “Cmax and AUC compared to ketamine at 10 mg/kg” value is “comparable to, or higher than”. For the same compound, the total exposure AUC(0-inf) in data set [2] (brain, 3.16 mg/kg ip) is 1220 ng·h/mL; in data set [2] (plasma, 3.16 mg/kg ip) it was 385 ng·h/mL. The peak concentration (Cmax) came out at 3370 ng/mL in data set [2] (brain, 3.16 mg/kg ip) and 875 ng/mL in data set [2] (plasma, 3.16 mg/kg ip).

On to `O=C1CCCCC1(c1ccccc1)N1CCCC1` (racemic) [Compound 27rac, 2-phenyl-2-(pyrrolidin-1-yl)cyclohexan-1-one], for which the negative logarithm of the Ki (pKi) on DAT was 4.26.

With `CN[C@@]1(c2ccccc2)CCCCC1=O` [Compound 14R, (R)-2-(methylamino)-2-phenylcyclohexan-1-one], in data set [2] (3.16 mg/kg ip), the “Cmax and AUC compared to ketamine at 10 mg/kg” value is “comparable to, or higher than”. Also, in data set [2] (brain, 3.16 mg/kg ip), the total exposure AUC(0-inf) was 2530 ng·h/mL and the peak level (Cmax) was 3320 ng/mL. In addition, in data set [2] (plasma, 3.16 mg/kg ip), the AUC(0-inf) was 703 ng·h/mL and the highest level (Cmax) was 1010 ng/mL. For the same compound, the “exposure (AUC) to 14R relative to 14S” value in data set [2] (same dose, 3.16 mg/kg ip) is “roughly 2 fold”.

A word on the pKi: it is −log10 of the Ki, conventionally taken in molar units. A low value points to a large Ki. A word on the half-life: it is the time needed for the level to fall by half in the phase considered. The term microsomal CLint denotes a measure of how fast metabolising enzymes remove a compound, apart from limits set by blood flow. A higher microsomal CLint goes with faster metabolism. Broadly, the AUC(0-inf) is the area under the concentration-time curve extrapolated to infinity. A word on the Cmax: it is the maximum level reached in the sampled fluid or tissue.
